The record followed here is patent US20100029643A1 (ASTRAZENECA AB, priority 2006, published 2010).

What is called inhibition is the drop in the measured response relative to a control, in per cent.

Each structure is given as a SMILES string.

The target of the first test is T1, Edg-1/S1P1 receptor (Homo sapiens, UniProt P21453).
T1 construct: expressed in transfected cells; host or cells: human osteogenic sarcoma U2OS cells: Edg-1 Transfluor U2OS WT Clone #37 (assay I), Edg-1 Transfluor U2OS Clone #3 (assay II)
T1 sequence (P21453 whole entry): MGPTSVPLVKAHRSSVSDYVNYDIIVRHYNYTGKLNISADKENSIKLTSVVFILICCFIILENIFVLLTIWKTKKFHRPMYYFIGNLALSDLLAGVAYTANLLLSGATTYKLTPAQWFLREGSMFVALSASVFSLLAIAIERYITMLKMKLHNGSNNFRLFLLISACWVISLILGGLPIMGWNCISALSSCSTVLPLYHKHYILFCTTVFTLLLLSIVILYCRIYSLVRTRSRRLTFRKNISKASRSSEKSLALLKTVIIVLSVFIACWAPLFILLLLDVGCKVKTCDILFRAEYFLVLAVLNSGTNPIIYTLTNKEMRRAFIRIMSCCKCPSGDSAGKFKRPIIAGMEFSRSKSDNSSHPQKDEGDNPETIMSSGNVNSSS
Nature of the test: In vitro cell based receptor activation assay - Transfluor assay (assay I or II; beta-arrestin GFP relocalization after S1P stimulation). The settings on record: at 3.30 μM (run with this as top concentration). From the text:
The following assays can be used to measure the effects of the compounds of the present invention as S1P1/Edg1 inhibitors.
I. In Vitro Cell Based Receptor Activation Assay-Transfluor Assay
This cell-based assay was designed to assess the ability of small molecule antagonists to inhibit activation of the GPCR S1P1 in the presence of its cognate ligand S1P. The assay used technology initially developed by Norak Biosciences (Xsira Pharmaceutical) and presently owned by Molecular Devices. A human osteogenic sarcoma (U2OS) cell line overexpressing the Edg-1/S1P1) receptor as well as a beta-arrestin/green fluorescent protein (GFP) construct hereafter termed Edg-1 Transfluor U2OS WT Clone #37 was employed.
Using a high content screening approach (Cellomics Arrayscan), receptor activity was measured by assessment of the relocalization of beta-arrestin GFP in response to stimulation of Edg-1 by SIP. Specifically, Edg-1 Transfluor U2OS WT Clone #37 cells were plated at a density of 6250 cells in 40 μL medium per well in 384 well plastic bottomed microtiter plates (BD Falcon) and incubated overnight at 37° C./5% CO2. Prior to screening, compounds were dissolved in 100% dimethyl sulfoxide (DMSO) to a final stock concentration of 10 mM. Compounds were then serially diluted at 30× final concentration in Edg-1 Transfluor cell growth medium containing […] using the Tecan Genesis instrument. These 30× plates were then diluted to 6× final concentration with Edg-1 Transfluor growth medium just prior to dosing. Cells were then dosed with 10 μL per well of 6× compound dilutions or 6% DMSO and pre-incubated for 15 minutes at room temperature. Cell plates were dosed with 10 μL per well 6× S1P Edg-1 Transfluor growth medium, then incubated for 45 minutes at 37° C./5% CO2. Final concentration in the well of DMSO was 1%, compound was IX (3-fold, 9 point IC50 dilutions starting at 100 μM final concentration), and either 375 nM or […] SIP ligand. Cell plates were then fixed by adding 50 μL per well of 5% formaldehyde in 1× Dulbecco's phosphate buffered saline (DPBS) directly and incubating for 30 minutes at room temperature in darkness. Fixative was removed and replaced with 50 μL per well of 1×DPBS, after which cells were stained with 10 μg/mL final concentration of Hoechst 33342 (Molecular Probes) for 15 minutes at room temperature in darkness. Stain was then removed from the plates and replaced with 50 μL per well of 1×DPBS using the BioTek ExL405 plate washer. Plates were then sealed and analysed on the Cellomics Arrayscan using the GPCR signalling algorithm. EC50 values were then calculated using IDBS ActivityBase software.
II. In Vitro Cell Based Receptor Activation Assay-Transfluor Assay
This cell-based assay was designed to assess the ability of small molecule antagonists to inhibit activation of the GPCR S1P1 in the presence of its cognate ligand S1P. The assay used technology initially developed by Norak Biosciences (Xsira Pharmaceutical) and presently owned by Molecular Devices (MDS Analytical Technologies). A human osteogenic sarcoma (U2OS) cell line overexpressing the Edg-1/S1P1) receptor as well as a beta-arrestin/green fluorescent protein (GFP) construct hereafter termed Edg-1 Transfluor U2OS Clone #3 was employed.
Using a high content screening approach (Molecular Devices Image Express), receptor activity was measured by assessment of the relocalization of beta-aiTestin GFP in response to stimulation of Edg-1 by S1P. Specifically, Edg-1 Transfluor U2OS Clone #3 cells were plated at a density of 6250 cells in 44 μL medium per well in 384 well plastic bottomed microtiter plates (BD Falcon) and incubated overnight at 37° C./5% CO2. Prior to screening, compounds were dissolved in 100% dimethyl sulfoxide (DMSO) to a final stock concentration of 10 mM. Compounds were then serially diluted at 10× final concentration in Edg-1 Transfluor cell growth medium containing 6% DMSO using the BioMek instrument. […]
Consider `CCn1c([C@@H](C)NS(=O)(=O)c2ccccc2)nc2ccc(C(F)(F)F)cc21` [Example 50, N-{(1R)-1-[1-Ethyl-6-(trifluoromethyl)-1H-benzimidazol-2-yl]ethyl}benzenesulfonamide], for which the inhibition at 3.3 µM stood at 92.1%.

The test is the same for the next values; noted with them: at 3.50 μM (titrated from top concentration 10 μM).
Molecule `CCn1c([C@@H](C)NS(=O)(=O)c2cnc(Cl)c(Cl)c2)nc2ccc(C(F)(F)F)cc21` [Example 48, 5,6-dichloro-N-(1-(1-ethyl-6-(trifluoromethyl)-1H-benzo[d]imidazol-2-yl)ethyl)pyridine-3-sulfonamide] showed an inhibition at 3.5 µM of 95.4%.

With `CCn1c([C@@H](C)NS(=O)(=O)c2ccc(Cl)cc2)nc2cc(F)c(Cl)cc21` [Example 56, 4-Chloro-N-[(1R)-1-(6-chloro-1-ethyl-5-fluoro-1H-benzimidazol-2-yl)ethyl]benzenesulfonamide], the inhibition at 3.5 µM is 96%.

Regarding `CCn1c([C@@H](C)NS(=O)(=O)c2ccc(Cl)cc2)nc2cc3c(cc21)OCO3` [Example 63, (R)-4-Chloro-N-[1-(5-Ethyl-5H-[1,3]dioxolo[4′,5′;4,5]-benzo[1,2-d]imidazol-6-yl)-ethyl]benzenesulfonamide], the inhibition at 3.5 µM came to 93.9%.

In turn, `CCn1c([C@@H](C)NS(=O)(=O)c2ccc(Cl)cc2)nc2ccc(C(F)F)cc21` [Example 69, 4-Chloro-N-{(1R)-1-[6-(difluoromethyl)-1-ethyl-1H-benzimidazol-2-yl]ethyl}benzenesulfonamide] came in with an inhibition at 3.5 µM of 85.2%.

The same test, now with this note: at 3.70 μM (titrated from top concentration 100 μM).
As for `CCn1c([C@@H](C)NS(=O)(=O)c2ccsc2)nc2ccc(C(F)(F)F)cc21` [Example 47, N-{(1R)-1-[1-Ethyl-6-(trifluoromethyl)-1H-benzimidazol-2-yl]ethyl}thiophene-3-sulfonamide], the inhibition at 3.7 µM came out at 89.6%.

`CCn1c([C@@H](C)NS(=O)(=O)c2cnc(Cl)c(Br)c2)nc2ccc(C(F)(F)F)cc21` [Example 49, 5-Bromo-6-chloro-N-{(1R)-1-[1-ethyl-6-(trifluoromethyl)-1H-benzimidazol-2-yl]ethyl}pyridine-3-sulfonamide] gave an inhibition at 3.7 µM of 92.1%.

For `CCn1c([C@@H](C)NS(=O)(=O)c2c(F)cc(F)cc2F)nc2ccc(C(F)(F)F)cc21` [Example 51, N-{(1R)-1-[1-Ethyl-6-(trifluoromethyl)-1H-benzimidazol-2-yl]ethyl}-2,4,6-trifluorobenzenesulfonamide], the inhibition at 3.7 µM was found to be 92.8%.

Take `CCn1c([C@@H](C)NS(=O)(=O)c2ccc(Cl)c3cccnc23)nc2ccc(C(F)(F)F)cc21` [Example 52, 5-Chloro-N-{(1R)-1-[1-ethyl-6-(trifluoromethyl)-1H-benzimidazol-2-yl]ethyl}-quinoline-8-sulfonamide]: the inhibition at 3.7 µM is 89%.

`CCCn1cc(S(=O)(=O)N[C@H](C)c2nc3ccc(C(F)(F)F)cc3n2CC)c(C)n1` [Example 53, N-{(1R)-1-[1-Ethyl-6-(trifluoromethyl)-1H-benzimidazol-2-yl]ethyl}-3-methyl-1-propyl-1H-pyrazole-4-sulfonamide] displayed an inhibition at 3.7 µM of 84.5%.

Take `CCCn1ncc(S(=O)(=O)N[C@H](C)c2nc3ccc(C(F)(F)F)cc3n2CC)c1C` [Example 54, N-{(1R)-1-[1-Ethyl-6-(trifluoromethyl)-1H-benzimidazol-2-yl]ethyl}-5-methyl-1-propyl-1H-pyrazole-4-sulfonamide]: testing at 3.7 µM gave an inhibition of 77.5%.

Consider `CCn1c([C@@H](C)NS(=O)(=O)c2ccc(Cl)cc2)nc2cc(F)cc(F)c21` [Example 57, 4-Chloro-N-[(1R)-1-(1-ethyl-5,7-difluoro-1H-benzimidazol-2-yl)ethyl]benzenesulfonamide], for which at 3.7 µM the inhibition was 84.5%.

Regarding `CCn1c([C@@H](C)NS(=O)(=O)c2ccc(Cl)cc2)nc2cc(Cl)cc(Cl)c21` [Example 58, 4-Chloro-N-[(1R)-1-(5,7-dichloro-1-ethyl-1H-benzimidazol-2-yl)ethyl]benzenesulfonamide], the inhibition at 3.7 µM is 78.2%.

With `CCn1c([C@@H](C)NS(=O)(=O)c2ccc(Cl)cc2)nc2cc(C)c(Cl)cc21` [Example 59, 4-Chloro-N-[(1R)-1-(6-chloro-1-ethyl-5-methyl-1H-benzimidazol-2-yl)ethyl]benzenesulfonamide], the inhibition at 3.7 µM is 78.2%.

Take `CCn1c([C@@H](C)NS(=O)(=O)c2ccc(Cl)cc2)nc2cccc(F)c21` [Example 60]: at 3.7 µM the inhibition was 97.7%.

Consider `CCn1c([C@@H](C)NS(=O)(=O)c2ccc(Cl)cc2)nc2cc(OC)c(OC)cc21` [Example 61, 4-Chloro-N-[(1R)-1-(1-ethyl-5,6-dimethoxy-1H-benzimidazol-2-yl)ethyl]benzenesulfonamide], for which 3.7 µM produced 54.9% inhibition.

On to `CCn1c([C@@H](C)NS(=O)(=O)c2ccc(Cl)cc2)nc2cc3c(cc21)OCCO3` [Example 62, 4-Chloro-N-[(1R)-1-(1-ethyl-6,7-dihydro-1H-[1,4]dioxino-[2,3-f]benzimidazol-2-yl)-ethyl]benzenesulfonamide], for which the inhibition at 3.7 µM came out at 52.2%.

On to `CCn1c([C@@H](C)NS(=O)(=O)c2ccc(Cl)cc2)nc2cc(OC(F)(F)F)ccc21` [Example 64, 4-Chloro-N-{(1R)-1-[1-ethyl-5-(trifluoromethoxy)-1H-benzimidazol-2-yl]ethyl}benzenesulfonamide], for which at 3.7 µM the inhibition was 50.6%.

In turn, `CCn1c([C@@H](C)NS(=O)(=O)c2ccc(Cl)cc2)nc2ccc(F)c(F)c21` [Example 65, 4-Chloro-N-[(1R)-1-(1-ethyl-6,7-difluoro-1H-benzimidazol-2-yl)ethyl]benzenesulfonamide] gave an inhibition at 3.7 µM of 84.2%.

On to `CCn1c([C@@H](C)NS(=O)(=O)c2ccc(Cl)cc2)nc2cccc(C)c21` [Example 66, 4-Chloro-N-[(1R)-1-(1-ethyl-7-methyl-1H-benzimidazol-2-yl)ethyl]benzenesulfonamide], for which the inhibition at 3.7 µM was 94.6%.

As for `CCn1c([C@@H](C)NS(=O)(=O)c2ccc(Cl)cc2)nc2ccc(C(N)=O)cc21` [Example 71, 2-(1-{[(4-Chlorophenyl)sulfonyl]amino}-ethyl)-1-ethyl-1H-benz-imidazole-6-carboxamide], testing at 3.7 µM gave an inhibition of 77.3%.

In the case of `CCn1c([C@@H](C)NS(=O)(=O)c2ccc(Cl)cc2)nc2ccc(CN(C)C)cc21` [Example 74, 4-Chloro-N-((1R)-1-{6-[(dimethylamino)methyl]-1-ethyl-1H-benzimidazol-2-yl}ethyl)benzenesulfonamide], the inhibition at 3.7 µM was 30.4%.

For the molecule `CCn1c([C@@H](C)NS(=O)(=O)c2ccc(Cl)cc2)nc2ccc(CN3CCOCC3)cc21` [Example 75, 4-Chloro-N-{(1R)-1-[1-ethyl-6-(morpholin-4-ylmethyl)-1H-benzimidazol-2-yl]ethyl}benzenesulfonamide], testing at 3.7 µM gave an inhibition of 37.2%.

With `CCn1c([C@@H](C)NS(=O)(=O)c2ccc(Cl)cc2)nc2cc(CO)ccc21` [Example 78, 4-Chloro-N-{(1R)-1-[1-ethyl-5-(hydroxymethyl)-1H-benzimidazol-2-yl]ethyl}benzenesulfonamide], at 3.7 µM the inhibition was 58.4%.

With `CCn1c([C@@H](C)NS(=O)(=O)c2ccc(Cl)cc2)nc2cc(Br)ccc21` [Example 81, N-[(1R)-1-(5-Bromo-1-ethyl-1H-benzimidazol-2-yl)ethyl]-4-chlorobenzenesulfonamide], 3.7 µM produced 91.6% inhibition.

In the case of `CCn1c([C@@H](C)NS(=O)(=O)c2ccc(Cl)cc2)nc2cc(-c3cccnc3)ccc21` [Example 82, 4-Chloro-N-[(1R)-1-(1-ethyl-5-pyridin-3-yl-1H-benzimidazol-2-yl)ethyl]benzenesulfonamide], 3.7 µM produced 10.3% inhibition.
